Assay results taken from patent US6344562B1, “Thiazole derivatives” (Hoffmann-La Roche Inc., priority 1998, dated 2002).
Structures can show the parent of a compound that is named as a salt.

melting point | SMILES
186 °C | N=C(N)Nc1nc(C(=O)NCC(=O)NC(CC(=O)O)c2cccnc2)cs1 (racemic) [Example 81, (RS)-3-{2-[(2-guanidino-thiazole-4-carbonyl)-amino]-acetylamino}-3-pyridin-3-yl-propionic acid]
159 °C | O=C(O)C(F)(F)F.O=C(O)C[C@H](NC(=O)CCCc1csc(NC(=O)NCc2ccccc2)n1)C(=O)NCc1ccccc1
193 °C | O=C(O)C[C@H](NC(=O)CNC(=O)c1csc(NC(=O)NCc2ccccc2)n1)C(=O)NCc1ccccc1 (as salt: trifluoroacetate) [Example 130, (S)-N-benzyl-3-[2-[[2-(3-benzyl-ureido)-thiazole-4-carbonyl]-amino]-acetylamino]-succinamic acid]
93 °C | CCOC(=O)CC(CCCNC(=O)c1csc(NC(=O)NCc2ccccc2)n1)c1ccccc1 (racemic) [Example 14, ethyl (RS)-6-{[2-(3-benzyl-ureido)-thiazole-4-carbonyl]-amino}-3-phenyl-hexanoate]
174 °C | O=C(O)CCNC(=O)CNC(=O)c1csc(NC(=O)NCc2ccccc2)n1 (as salt: hydrochloride) [Example 132, 3-[2-[[2-(3-benzyl-ureido)-thiazole-4-carbonyl]-amino]-acetylamino]-propionic acid]
149 °C | CCOC(=O)CC(NC(=O)c1cccc(NC(=O)c2cnc(NC(=N)N)s2)c1)c1ccccc1 (racemic) [Example 72, ethyl (RS)-3-{3-[(2-guanidino-thiazole-5-carbonyl)-amino]-benzoylamino}-3-phenyl-propionate]
198 to 199 °C | CCOC(=O)CC(NC(=O)CNC(=O)c1csc(N=C2NCCN2)n1)c1cccnc1 (racemic) [Example 171, ethyl (RS)-3-(2-{[2-(imidazolidin-2-ylidenamino)-thiazole-4-carbonyl]-amino}-acetylamino)-3-pyridin-3-yl-propionate]
230 °C | N=C(N)Nc1nc(C(=O)NCCCC(CC(=O)O)c2ccccc2)cs1 (racemic) [Example 17, (RS)-6-[(2-guanidino-thiazole-4-carbonyl)-amino]-3-phenyl-hexanoic acid]
137 to 139 °C | CCOC(=O)CC(CCCCNC(=O)c1sc(N=C2NCCCN2)nc1C)c1ccccc1 (racemic) [Example 173, ethyl rac-7-[[4-methyl-2-(tetrahydro-pyrimidin-2-ylideneamino)-thiazole-5-carbonyl]-amino]-3-phenyl-heptanoate]
138 °C | CCOC(=O)CC(CCCCNC(=O)c1sc(NC(=N)N)nc1C)c1ccccc1 (racemic) [Example 84, ethyl (RS)-7-[(2-guanidino-4-methyl-thiazole-5-carbonyl)-amino]-3-phenyl-heptanoate]
85 to 87 °C | CCOC(=O)CC(NC(=O)CCNC(=O)c1csc(NC(=N)N)n1)c1ccccc1 (racemic) [Example 24, ethyl rac-3-[3-[(2-guanidino-thiazole-4-carbonyl)-amino]-propionylamino]-3-phenyl-propionate]
126 to 130 °C | O=C(O)C[C@H](NC(=O)CNC(=O)c1csc(NC(=O)NCc2ccccc2)n1)C(=O)N[C@H](C(=O)O)c1ccccc1 (as salt: trifluoroacetate) [Example 144, (S)-3-[2-[[2-(3-benzyl-ureido)-thiazole-4-carbonyl]-amino]-acetyl-amino]-N-[(S)-carboxy-phenyl-methyl)-succinamic acid]
117 °C | CCOC(=O)CC(NC(=O)c1cccc(NC(=O)c2csc(NC(=N)N)n2)c1)c1ccccc1 (racemic) [Example 18, ethyl (RS)-3-[3-[(2-guanidino-thiazole-4-carbonyl)-amino]-benzoylamino]-3-phenyl-propionate]
186 to 188 °C | CCc1nc(NC(=N)N)sc1-c1cccc(NC(=O)CC(CC(=O)O)c2ccccc2)c1 (racemic) (as salt: salt) [Example 91, rac-4-[3-(4-ethyl-2-guanidino-thiazol-5-yl)-phenylcarbamoyl]-3-phenyl-butyric acid]
183 °C | O=C(O)C[C@H](NC(=O)CNC(=O)c1csc(NC(=O)NCc2ccccc2)n1)C(=O)O (as salt: trifluoroacetate) [Example 158, (S)-2-(2-{[2-(3-benzyl-ureido)-thiazole-4-carbonyl]-amino}-acetylamino)-succinic acid]
192 °C | O=C(O)C[C@H](NC(=O)CNC(=O)c1csc(NC(=O)NCc2ccccc2)n1)C(=O)Nc1ccccc1C(=O)O [Example 136, (S)-2-[2-(2-{[2-(3-benzyl-ureido)-thiazole-4-carbonyl]-amino}-acetylamino)-3-carboxy-propionylamino]-benzoic acid]
177 °C | CCOC(=O)CC(NC(=O)c1cccc(NC(=O)c2sc(NC(=N)N)nc2C)c1)c1ccccc1 (racemic) [Example 10, ethyl rac-3-[3-[(2-guanidino-4-methyl-thiazole-5-carbonyl)-amino]-benzoylamino]-3-phenyl-propionate]
154 to 157 °C | CCOC(=O)CCNC(=O)CCNC(=O)c1csc(NC(=N)N)n1 [Example 7, ethyl 3-[3-[(2-guanidino-thiazole-4-carbonyl)-amino]-propionylamino]-propionate]
196 °C | N=C(N)Nc1ncc(C(=O)Nc2cccc(C(=O)NC(CC(=O)O)c3ccccc3)c2)s1 (racemic) [Example 73, (RS)-3-[3-[(2-guanidino-thiazole-5-carbonyl)-amino]-benzoylamino]-3-phenyl-propionic acid]
233 °C | O=C(O)CCc1ccc(NC(=O)c2csc(NC(=O)NCc3ccccc3)n2)cc1 [Example 154, 3-[4-[[2-(3-benzyl-ureido)-thiazole-4-carbonyl]-amino]-phenyl]-propionic acid]
245 to 247 °C (dec.) | CCCc1nc(NC(=N)N)sc1-c1cccc(NC(=O)CC(CC(=O)O)c2ccccc2)c1 (racemic) [Example 92, rac-4-[3-(2-guanidino-4-propyl-thiazol-5-yl)-phenylcarbamoyl]-3-phenyl-butyric acid]
105 to 107 °C (dec.) | N=C(N)Nc1nc(C(=O)NCCC(=O)NC(CC(=O)O)c2ccccc2)cs1 (racemic) [Example 25, rac-3-[3-[(2-guanidino-thiazole-4-carbonyl)-amino]-propionylamino]-3-phenyl-propionic acid]

SMILES | melting point
CC(C)(C)OC(=O)N[C@@H](CCCCNC(=O)c1csc(NC(=O)NCc2ccccc2)n1)C(=O)O [Example 146, (S)-6-{[2-(3-benzyl-ureido)-thiazole-4-carbonyl]-amino}-2-tert-butoxycarbonylamino-hexanoic acid] | 138 °C
